This passage reports safety and tolerability and EC50 results from patent US20250221971A1, “METHODS OF TREATMENT FOR CYSTIC FIBROSIS” (Vertex Pharmaceuticals Incorporated, priority 2022, published 2025).

A short description of data set [1]: First-in-human clinical study of safety, tolerability and PK in healthy subjects. The format is in vivo. As to conditions: all cohorts (Parts A, B, C), single doses 0.6-540 mg, multiple total daily doses 2-315 mg. Here is the method: In a first-in-human (FIH) clinical study of Compound I, designed to evaluate the safety, tolerability, and pharmacokinetics (PK) of Compound I in healthy subjects, an assessment of drug-drug interactions (DDIs) between Compound I and itraconazole and midazolam was conducted.
This first-in-human (FIH) study of Compound I included three parts (Parts A, B, and C).
Approximately 154 healthy adult subjects were planned to be enrolled in planned cohorts. Approximately 76 subjects were planned to be enrolled in Part A, approximately 48 subjects in Part B, and approximately 30 subjects in Part C. There was no pre-specified ratio of males to females, but reasonable effort was made to enroll females of non-childbearing potential in all dosing cohorts.
Six dose escalation cohorts each were planned for Parts A and B. Additional cohorts in Part A were enrolled based on data from previous cohorts. In each cohort, approximately eight subjects were randomized 3:1 to receive Compound I or placebo as a suspension, under fasted or fed conditions. Eight subjects were enrolled in food-effect Cohort A9 to receive open-label Compound I; subsequent cohorts were dosed under fed conditions. […]
Food effect was evaluated in open-label, single-sequence Cohort A9 to evaluate the effect of food on the PK of Compound I based on emerging PK data during dose escalation. […]

Data set [2] concerns the target T1, CFTR in F508del/MF-HBE cells (Homo sapiens, UniProt P13569, DEL508-508).
T1 construct: human bronchial epithelial (HBE) cells derived from CF subjects heterozygous for F508del and a minimal function CFTR mutation; endogenous in cells; host or cells: primary human bronchial epithelial cells from CF subjects (F508del/MF-HBE)
Nature of the data set: Ussing chamber assay of CFTR-mediated short-circuit currents (potentiator identification). As to conditions: with 10 μM Compound VII, 18-24 hours at 37° C., 20% human serum. The format is cell-based. On the procedure: Ussing chamber experiments were performed using human bronchial epithelial (HBE) cells derived from CF subjects heterozygous for F508del and a minimal function CFTR mutation (F508del/MF-HBE) and cultured as previously described (Neuberger T., Burton B., Clark H., Van Goor F. Methods Mol Biol 2011:741:39-54). After four days the apical media was removed, and the cells were grown at an air liquid interface for >14 days prior to use.
To isolate the CFTR-mediated short-circuit (ISC) current, F508del/MF-HBE grown on Costar® Snapwell™ cell culture inserts were mounted in an Ussing chamber and the transepithelial ISC was measured under voltage-clamp recording conditions (Vhold=0 mV) at 37° C. The basolateral solution contained (in mM) 145 NaCl, 0.83 K2HPO4, 3.3 KH2PO4, 1.2 MgCl2, 1.2 CaCl2), 10 Glucose, 10 HEPES (pH adjusted to 7.4 with NaOH) and the apical solution contained (in mM) 145 NaGluconate, 1.2 MgCl2, 1.2 CaCl2), 10 glucose, 10 HEPES (pH adjusted to 7.4 with NaOH) and 30 μM amiloride to block the epithelial sodium channel. […] The CFTR-mediated ISC (μA/cm^2) for each condition was determined from the peak forskolin response to the steady-state current following inhibition.
The activity of the CFTR potentiator compounds on the CFTR-mediated ISC was determined in Ussing chamber studies as described above. […]

T1 sequence (P13569 with tags, fused parts or gaps DEL508-508): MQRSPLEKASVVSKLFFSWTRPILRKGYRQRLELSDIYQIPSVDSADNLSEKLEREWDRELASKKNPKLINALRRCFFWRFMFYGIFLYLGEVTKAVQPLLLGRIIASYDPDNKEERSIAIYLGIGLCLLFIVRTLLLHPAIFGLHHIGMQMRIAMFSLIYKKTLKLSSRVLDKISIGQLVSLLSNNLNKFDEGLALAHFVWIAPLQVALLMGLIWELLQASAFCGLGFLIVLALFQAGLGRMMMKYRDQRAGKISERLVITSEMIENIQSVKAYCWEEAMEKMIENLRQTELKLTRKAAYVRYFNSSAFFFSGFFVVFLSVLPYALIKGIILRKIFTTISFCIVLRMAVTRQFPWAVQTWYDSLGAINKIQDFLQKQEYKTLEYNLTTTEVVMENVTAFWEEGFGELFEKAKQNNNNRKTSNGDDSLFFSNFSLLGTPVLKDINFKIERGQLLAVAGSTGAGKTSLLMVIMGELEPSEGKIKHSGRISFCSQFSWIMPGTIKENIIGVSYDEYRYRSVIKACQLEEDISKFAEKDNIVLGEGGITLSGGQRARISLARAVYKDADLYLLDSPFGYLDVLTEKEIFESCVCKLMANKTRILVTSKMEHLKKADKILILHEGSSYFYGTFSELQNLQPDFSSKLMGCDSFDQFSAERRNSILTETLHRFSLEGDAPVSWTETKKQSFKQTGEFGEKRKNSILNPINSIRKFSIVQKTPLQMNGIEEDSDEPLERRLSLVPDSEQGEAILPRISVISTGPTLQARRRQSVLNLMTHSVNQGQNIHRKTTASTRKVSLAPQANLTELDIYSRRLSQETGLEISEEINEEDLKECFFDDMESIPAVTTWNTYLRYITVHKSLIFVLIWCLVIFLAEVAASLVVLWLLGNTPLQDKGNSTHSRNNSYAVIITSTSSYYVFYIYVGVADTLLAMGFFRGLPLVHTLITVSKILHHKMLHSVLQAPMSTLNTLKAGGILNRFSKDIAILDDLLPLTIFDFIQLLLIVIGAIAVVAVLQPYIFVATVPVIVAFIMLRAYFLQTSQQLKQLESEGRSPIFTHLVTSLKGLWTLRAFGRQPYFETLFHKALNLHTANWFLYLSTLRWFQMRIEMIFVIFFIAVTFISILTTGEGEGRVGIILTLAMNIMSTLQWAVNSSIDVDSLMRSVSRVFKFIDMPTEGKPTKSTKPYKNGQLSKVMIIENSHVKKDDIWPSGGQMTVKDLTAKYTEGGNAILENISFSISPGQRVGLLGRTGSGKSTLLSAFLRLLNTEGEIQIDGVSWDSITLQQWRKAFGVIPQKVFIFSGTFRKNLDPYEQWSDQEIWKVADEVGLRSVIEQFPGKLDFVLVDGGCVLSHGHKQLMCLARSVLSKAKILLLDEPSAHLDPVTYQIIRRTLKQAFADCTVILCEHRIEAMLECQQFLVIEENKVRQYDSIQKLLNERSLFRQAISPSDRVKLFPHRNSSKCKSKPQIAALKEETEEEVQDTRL

A word on the EC50: it is the concentration that produces a half-maximal response. Regarding `C[C@@H]1CCCCC[C@](O)(C(F)(F)F)C2=NN=C(O2)c2nc(c(C(F)(F)F)cc2N)O1` [Compound I, (6R,12R)-17-amino-12-methyl-6,15-bis(trifluoromethyl)-13,19-dioxa-3,4,18-triazatricyclo[12.3.1.12,5]nonadeca-1(18),2,4,14,16-pentaen-6-ol], the safety and tolerability entry in data set [1] is “generally safe and well-tolerated”. Also, the EC50 in data set [2] was below 500 nM.
